In ChEMBL document CHEMBL1250493, “Interaction of daunomycin with acetylated chromatin” (J Med Chem, 2010):

What was measured:
Gallus gallus [1] = species on record: Gallus gallus; experiment: Binding affinity to histone H1 containing chromatin in chicken erythroleukemic cells mononucleosomes transformed with Marek's virus by Scatchard plot analysis
Gallus gallus [2] = species on record: Gallus gallus; experiment: Binding affinity to histone H1 depleted chromatin in chicken erythroleukemic cells mononucleosomes transformed with Marek's virus by Scatchard plot analysis

Compound `COc1cccc2c1C(=O)c1c(O)c3c(c(O)c1C2=O)C[C@@](O)(C(C)=O)C[C@@H]3O[C@H]1C[C@H](N)[C@H](O)[C@H](C)O1` has a K (Gallus gallus [1]) of 4.6 ×10⁴ /M and a K (Gallus gallus [2]) of 6.4 ×10⁴ /M.
